Measurements taken from patent publication US12496267B2, “Extract of organic humified materials” (priority 2019, dated 2025).

Tests used:
[1] = test system: TNFα; test: Inflammation: reconstructed human epidermis/PBMC, MSD U-PLEX, TNFα; type: cell-based; details: 1%
Experimental: (§1) Potential immune modulatory effects were determined on reconstructed human epidermis (RHE) using a 3D Skin Modell (Cell systems). In the first step the skin patches are stimulated with specific controls and stimuli for a defined time period. In this context it had to be considered that different stimuli require different incubation times. The incubation with heat inactivated C.acnes (10^7 cells/approach) as well as the direct incubation with the test substances (AHE/FA/BIS) was performed for 16h at 37° C. The AHE test substances comprised AHE solutions, comprising either 1%, 2% or 5% AHE in PBS, generated as described in Example 8. The incubation with the positive control (5% SDS) was performed for 20 min (37° C.). After the primary stimulation step skin patches were washed (PBS 3×300 μl) and subjected to a regeneration phase (24h/37° C.) in presence of the indicated substances (CM/AHE/FA/CH/BIS). After this incubation phase the culture medium of each approach was isolated and used to stimulate human PBMCs. Hereby 100 μl of the RHE culture was added cultures of human PBMCs (1×10^6 cells in 300 μl culture medium) and incubated for additional 16 h (37° C.). After this incubation step, PBMCs were separated by centrifugation and the supernatant was saved for the MSD multiplexing platform. In parallel the cells of the RHE culture were subjected to cell lysis (1% SDS, 30 min/4° C. agitation). Cell extracts were saved for the MSD multiplexing platform.
(§2) Using the MSD U-PLEX it is possible to create an individualized multiplex assays for any combination of analytes. Hereby biotinylated capture reagents are coupled to U-PLEX Linkers. The U-PLEX Linkers then self-assemble onto unique spots on the U-PLEX plate. After analytes in the sample bind to the capture reagents, detection antibodies conjugated with electro-chemiluminescent labels (MSD GOLD SULFO-TAG) bind to the analytes to complete the sandwich immunoassay. Using this technology, the following markers were immobilized:
(§3) U-PLEX Human IFN-γ, U-PLEX Human IL-16, U-PLEX Human IL-2, U-PLEX Human IL-4, U-PLEX Human IL-5, U-PLEX Human IL-6, U-PLEX Human IL-8, U-PLEX Human IL-12p70, U-PLEX Human IL-13, U-PLEX Human IL-17A, U-PLEX Human IL-17F, U-PLEX Human IL-22, U-PLEX Human IL-23, U-PLEX Human TNF-α. U-PLEX Human TGF-β1. All steps were performed according to the supplier's protocol.
(§4) As described above, the Reconstructed human epidermis (RhE) was stimulated with the indicated substances and stimuli (Sample # Description, Tables 11-21) for 16 h. Upon this step the RhE was washed and in incubated in a second line with the indicated substances or culture medium. As controls, the RhE was treated in the first line with PBS and subsequently with culture medium. As further controls the PBMCs were treated with culture medium alone, with heat inactivated C. acnes and with pooled supernantant (SN) of the RhEs before stimulation. For Mesoscale analysis, the supernatant of the PBMC culture (PBMCs) was compared with a cell extract of the RhE prepared after the individual incubation steps (RhEs) and the supernatant of the RhEs after the stimulation steps (SN RhEs). RhE treated in the first and second line with culture medium (Rhe NC) can be used as negative control in all settings.

[2] = test system: IL-1β; test: Inflammation: reconstructed human epidermis/PBMC, MSD U-PLEX, IL-1β; type: cell-based; details: 1%
Experimental: as §1, §2, §3, §4

[3] = test system: IL-4; test: Inflammation: reconstructed human epidermis/PBMC, MSD U-PLEX, IL-4; type: cell-based; details: PBMCs (supernatant), 1%
Experimental: as §1
(§5) Using the MSD U-PLEX it is possible to create an individualized multiplex assays for any combination of analytes. Hereby biotinylated capture reagents are coupled to U-PLEX Linkers. The U-PLEX Linkers then self-assemble onto unique spots on the U-PLEX plate. After analytes in the sample bind to the capture reagents, detection antibodies conjugated with electro-chemiluminescent labels (MSD GOLD SULFO-TAG) bind to the analytes to complete the sandwich immunoassay. Using this technology, the following markers were immobilized: […]

[4] = test system: IL-5; test: Inflammation: reconstructed human epidermis/PBMC, MSD U-PLEX, IL-5; type: cell-based; details: 1%
Experimental: as §1, §2, §3, §4

[5] = test system: IL-6; test: Inflammation: reconstructed human epidermis/PBMC, MSD U-PLEX, IL-6; type: cell-based; details: 1%
Experimental: as §1, §2, §3, §4

[6] = test system: IL-8; test: Inflammation: reconstructed human epidermis/PBMC, MSD U-PLEX, IL-8; type: cell-based; details: 1%
Experimental: as §1, §2, §3, §4

[7] = test system: IFN-γ; test: Inflammation: reconstructed human epidermis/PBMC, MSD U-PLEX, IFN-γ; type: cell-based; details: 1%
Experimental: as §1, §2, §3, §4

[8] = test system: IL-12p70; test: Inflammation: reconstructed human epidermis/PBMC, MSD U-PLEX, IL-12p70; type: cell-based; details: 1%
Experimental: as §1, §2, §3
As described above, the Reconstructed human epidermis (RhE) was stimulated with the indicated substances and stimuli (Sample # Description, Tables 11-21) for 16 h. Upon this step the RhE was washed and in incubated in a second line with the indicated substances or culture medium. As controls, the RhE was treated in the first line with PBS and subsequently with culture medium. […]

[9] = test system: IL-13; test: Inflammation: reconstructed human epidermis/PBMC, MSD U-PLEX, IL-13; type: cell-based; details: PBMCs (supernatant), 1%
Experimental: as §1, §5

[10] = test system: human Keratinocyte cell line (HaCat); test: Wound healing: scratch of HaCat keratinocyte monolayer, regeneration over 72 h; type: cell-based; details: EGF 10 ng/ml; within 72 hours
Experimental: A human Keratinocyte cell line (HaCat) was cultivated in 6 well plates to reach a dense cell layer. Subsequently the monolayer was injured with a mechanical device leading to a cross formed scratch in the monolayer. Upon scratching cells were washed once with PBS and treated with the test substances outlined above as well as with appropriate controls. The ingrowth of cells was monitored/documented for another 72 hours to the point where the cross formed injury of the monolayer was recovered with cells. At that point cells were washed and harvested. Cell extracts were generated by treatment with PBS/1% Triton X100 (30 min on ice). Subsequently cell extracts were analysed by SDS-PAGE/Western Blotting using antibodies directed towards the […] markers E-Cadherin and Paxillin (FIG. 10 and FIG. 11).
Cells were treated with AHE solutions, comprising either 1% or 5% AHE in PBS (phosphate buffered saline). The dry extract was generated as described in Example 1, and then dissolved in PBS at 37° C. for 72 hours using a weight/volume ratio of 0.1 g/mL, 0.2 g/mL or 0.5 g/mL, respectively.
For comparison, cells were also treated with Fulvic Acid and Charcoal, EGF was used as positive control, Medium without active substance was used as negative control.

[11] = test system: Paxillin; test: Western blot of Paxillin in scratched HaCat cells; type: cell-based, human; details: comparators: EGF; Fulvic Acid (1% per FIG. 10)
Experimental: FIG. 10: HaCat cells were cultured as described. 72h after mechanical disruption, cells were lysed (PBS/1% Triton X100, 30 min, 4° C.) and subsequently subjected to SDS-PAGE/Western Blotting. Cell adhesion markers were determined with specific antibodies directed towards cell adhesion markers E-Cadherin and Paxillin. Reactivities were normalized using an antibody directed against the housekeeping protein Actin.
FIG. 11: HaCat cells were cultured as described. 72h after mechanical disruption, cells were lysed (PBS/1% Triton X100, 30 min, 4° C.) and subsequently subjected to SDS-PAGE/Western Blotting. Cell adhesion markers were determined with specific antibodies directed towards cell adhesion markers E-Cadherin and Paxillin.
A human Keratinocyte cell line (HaCat) was cultivated in 6 well plates to reach a dense cell layer. Subsequently the monolayer was injured with a mechanical device leading to a cross formed scratch in the monolayer. […] The ingrowth of cells was monitored/documented for another 72 hours to the point where the cross formed injury of the monolayer was recovered with cells. […] Subsequently cell extracts were analysed by SDS-PAGE/Western Blotting using antibodies directed towards the […] markers E-Cadherin and Paxillin (FIG. 10 and FIG. 11). […]

[12] = test system: Keratin 10; test: Skin barrier: Western blot of Cytokeratin 10 in HaCat 3-dimensional culture; type: cell-based, human; details: positive control EGF
Experimental: FIG. 13: Western Blot Analysis with anti-Cytokeratin 10 was performed as described. The primary antibody (Keratin 10 (KRT10): Cusabio Technology CSB-PA445987) was used in a dilution of 1:1000. After the primary incubation step binding of the primary antibody was visualized with an anti-rabbit-IG conjugated to horse raddish peroxidase. Detection of Cytokeratin-10 with an apparent MW of 58 kDa was visualized using the ECL Technology in combination with a BioRad Gel documentation system.
(§6) To determine the effects of the Alpine Heilmoor Extract on the stability of the membrane barrier, human Keratinocytes (HaCat) were analysed in a 3-dimensional cell culture system. Hereby, cells (5×10^4/insert) were seeded on culture inserts of the system and cultivated in 24 well plates for 14 days with medium exchange in 3-day intervals and permanent monitoring of the TEER value. Reaching a constant TEER value cells were stimulated with heat inactivated C. acnes (10^7 cells/well) for 16 h. Subsequently, cells were washed and incubated with described 2nd line substances (i.e. AHE solutions, comprising either 1%, 2% or 5% AHE in PBS, generated as described in Example 8) for 24 hours. […]
(§7) Effects of the indicated stimuli/second line substances were evaluated by determination of the expression levels of membrane markers Cytokeratin 10/Cytokeratin 16/Fillagrin and Ki67. […]

[13] = test system: Keratin 16; test: Skin barrier: Western blot of Cytokeratin 16 in HaCat 3-dimensional culture; type: cell-based, human
Experimental: FIG. 14: Western Blot Analysis with anti-Cytokeratin 16 was performed as described. The primary antibody (Keratin 16 (KRT16): Cusabio Technology CSB-PA012515LA01Hu) was used in a dilution of 1:500. After the primary incubation step binding of the primary antibody was visualized with an anti-rabbit-IG conjugated to horse raddish peroxidase. Detection of Cytokeratin-16 with an apparent MW of 51 kDa was visualized using the ECL Technology in combination with a BioRad Gel documentation system.
as §6, §7

[14] = test system: human colorectal cells (CaCo2); test: Membrane barrier enhancement: TEER of CaCo2 3-dimensional culture; type: cell-based; details: EGF
Experimental: To determine the effects of the test substances on the stability on the human gut barrier, human colorectal cells (CaCo2) were analysed in a 3-diemsional cell culture system. Cells (5×10^4/insert) were seeded on culture inserts of the system and cultivated in 24 well plates for 14 days with medium exchange in 3-day intervals and permanent monitoring of the TEER value. […] Subsequently, cells were washed and incubated with described 2nd line substances (i.e. AHE solutions, comprising either 1%, 2% or 5% AHE in PBS, generated as describe din Example 8) for 24 hours. After this step cells were washed and cell extracts were prepared by incubation with PBS/1% Triton X100. Cell extracts are ready for SDS-PAGE/Western Blotting.

[15] = PBMCs (supernatant), RhE C. acnes-stimulated, then substance
[16] = PBMCs (supernatant), RhE without C. acnes
[17] = SN RhEs, RhE C. acnes-stimulated, then substance
[18] = RhE C. acnes-stimulated, then substance
[19] = RhEs (cell extract), RhE without C. acnes

## CC(C)=CCC[C@](C)(O)C1CC=C(C)CC1 (stereo partly drawn) [Bisabolol]
[1]; [15]
  TNFα concentration: 51.6 pg/mL
[1]; [16]
  TNFα concentration: 29.8 pg/mL
[1]; [17]
  TNFα concentration: 8.6 pg/mL
[1]; SN RhEs, RhE without C. acnes
  TNFα concentration: 17.1 pg/mL
[2]; [15]
  IL-1β concentration: 1525 pg/mL
[2]; [16]
  IL-1β concentration: 1277 pg/mL
[2]; [17]
  IL-1β concentration: 8.5 pg/mL
[2]; SN RhEs, RhE without C. acnes
  IL-1β concentration: 5.4 pg/mL
[3]; [18]
  IL-4 concentration: 10.1 pg/mL
[3]; RhE without C. acnes
  IL-4 concentration: 9.1 pg/mL
[4]; [15]
  IL-5 concentration: 24.1 pg/mL
[4]; [16]
  IL-5 concentration: 18.2 pg/mL
[4]; [17]
  IL-5 concentration: 1.1 pg/mL
[4]; SN RhEs, RhE without C. acnes
  IL-5 concentration: 0.0 pg/mL
[5]; [15]
  IL-6 concentration: 13038.0 pg/mL
[5]; [16]
  IL-6 concentration: 12302.5 pg/mL
[5]; [17]
  IL-6 concentration: 75.1 pg/mL
[5]; SN RhEs, RhE without C. acnes
  IL-6 concentration: 30.8 pg/mL
[6]; [15]
  IL-8 concentration: 43765.9 pg/mL
[6]; [16]
  IL-8 concentration: 44123.3 pg/mL
[6]; RhEs (cell extract), RhE C. acnes-stimulated, then substance
  IL-8 concentration: 58.1 pg/mL
[6]; [19]
  IL-8 concentration: 68.9 pg/mL
[6]; [17]
  IL-8 concentration: 4317.3 pg/mL
[6]; SN RhEs, RhE without C. acnes
  IL-8 concentration: 2459.3 pg/mL
[7]; [15]
  INF-y concentration: 124.4 pg/mL
[7]; [16]
  INF-y concentration: 90.5 pg/mL
[7]; [19]
  INF-y concentration: 8.3 pg/mL
[7]; [17]
  INF-y concentration: 13.9 pg/mL
[8]; [15]
  IL-12p70 concentration: 69.9 pg/mL
[8]; [16]
  IL-12p70 concentration: 51.3 pg/mL
[8]; [17]
  IL-12p70 concentration: 3.3 pg/mL
[9]; [18]
  IL-13 concentration: 186.6 pg/mL
[9]; RhE without C. acnes
  IL-13 concentration: 157.9 pg/mL

## EGF: positive control (10 ng/ml in Example 8)
[10]
  regeneration of scratched keratinocyte monolayer: regenerated well
[11]
  expression of cell adhesion molecule Paxillin: also observed
[12]
  Cytokeratin 10 band (58 kDa): induction
[13]; EGF
  Cytokeratin 16 specific band (51 kDa): detected
[13]; positive control EGF
  anti-Cytokeratin 16 reactive protein complex at about 75 kDa: visible
[14]; D15 (1 d after stimulation with IL1alpha/TNF-alpha)
  TEER value: 4800 Ω/cm^2
[14]; D15 (non stimulated controls)
  TEER value: 4000 Ω/cm^2
[14]; D17 (after regeneration phase with extracts: non stimulated controls)
  TEER value: 7200 Ω/cm^2
[14]; D17 (after regeneration phase with extracts: stimulated skin)
  TEER value: 9600 Ω/cm^2
